Results taken from publication PMC7677930, “In Vitro and In Silico ADME-Tox Profiling and Safety Significance of Multifunctional Monoamine Oxidase Inhibitors Targeting Neurodegenerative Diseases” (ACS Chemical Neuroscience, 2020).

What was measured:
[1] = tested on: hAChE; conditions: cited from earlier work
[2] = precipitation during incubation in MTS assay; format: physicochemical; conditions: 72 h
Protocol: (A) Concentration–response on HEK-293 cells. (B) Concentration–response on HepG2 cells. Statistical significance was evaluated by one-way ANOVA, followed by Bonferroni’s comparison test (****p < 0.0001). DX, doxorubicin; CCCP, carbonyl cyanide 3-chlorophenyl […]. ASS234 precipitated at 100 μM during incubation.
(§1) Cytotoxicity and hepatotoxicity were estimated using the human embryonic kidney HEK-293 cell line (ATCC CRL-1573) and hepatoma HepG2 (ATCC HB-8065) cell line. The CellTiter 96 Aqueous Non-Radioactive Cell Proliferation Assay (MTS) was purchased from Promega (Madison, WI, USA) and performed according to the manufacturer’s protocol. […] The antiproliferative drug doxorubicin (DX) (1 μM) and mitochondrial toxin carbonyl cyanide 3-chlorophenyl-hydrazone (CCCP) (10 μM, only in hepatotoxicity assay) were used as positive controls (purchased from Sigma-Aldrich, St. Louis, MO, USA).

[3] = tested on: Huh7 cells; test: MTT cell viability assay on Huh7; format: cell-based, human; conditions: for concentration at which compound began to elicit toxicity: Huh7, MTT, 24 h, 1-300 μM tested; for toxicity compared with ASS234: Huh7, MTT (Figure 5A)
Protocol: (§2) The human hepatoma cell line (Huh7) was purchased from the American Type Culture Collection (ATCC, Manassas, VA, USA). The generation and characterization of the immortalized mouse hepatocyte cell line WTIIB has been previously described.[24] Cell viability was measured by the quantitative colorimetric MTT (3-[4,5-dimethylthiazol-2-yl]-2,5 diphenyl tetrazolium bromide) assay as previously described, and triarylmethane dye (violet) assay following the protocol adapted from Feoktistova et al.[25] After the incubation period with the compounds, MTT reagent was added to each well at a final concentration of 0.5 mg/mL. The plate was placed in a humidified incubator at 37 °C with 5% CO2 and 95% air for 2 h. Then, the precipitated formazan was dissolved with dimethyl sulfoxide (DMSO) and the colorimetric determination of MTT was measured in the spectrophotometer at 540 nm wavelength. Nontreated cells were considered controls and were taken as 100% viability.

[4] = target: hS1R; conditions: read-out: KihS1R; cited from earlier work
[5] = tested on: WTIIB cells; test: MTT cell viability assay on WTIIB; format: cell-based, mouse; conditions: for concentration at which compound began to elicit toxicity: MTT, 24 h, 1-300 μM tested
Protocol: as §2

[6] = tested on: Huh7 cells; test: crystal violet cell viability assay on Huh7; format: cell-based, human; conditions: for concentration at which compound began to elicit toxicity: Huh7, crystal violet, 24 h, 1-300 μM tested; for toxicity compared with ASS234: Huh7, crystal violet (Figure 5C)
Protocol: as §2
(§3) To perform the crystal violet assay, wells were washed twice in PBS and cells were fixed with 100 μL of crystal violet (Sigma-Aldrich, Madrid, Spain) solution at 0.2% prepared in ethanol. Plates were incubated for 20 min at room temperature in a bench rocker. Next, wells were washed four times with distilled water, and then the plate was inverted gently to remove any remaining liquid. The plate was dried at room temperature for at least 2 h and attached cells were resuspended in SDS 1% for 30 min in a bench rocker. The optical density was measured in the spectrophotometer at 540 nm wavelength. Nontreated cells were considered controls and were taken as 100% viability.

[7] = tested on: MAO B; conditions: Figure 1; cited from earlier work
[8] = tested on: MAO A; conditions: Figure 1; cited from earlier work
[9] = tested on: WTIIB cells; test: crystal violet cell viability assay on WTIIB; format: cell-based, mouse; conditions: for concentration at which compound began to elicit toxicity: crystal violet, 24 h, 1-300 μM tested; for toxicity compared with ASS234: crystal violet (Figure 5D)
Protocol: as §2, §3

[10] = tested on: hBuChE; conditions: cited from earlier work
[11] = metabolic stability, 2 h incubation with human liver microsomes, UPLC-MS; format: in vitro ADME
Excerpt: The metabolic stability of a compound is an important factor that determines its pharmacokinetics and its potential as a drug candidate. Drugs are being metabolized in a variety of tissues including lungs, kidneys, or intestinal walls, but the liver plays an essential role in this process.
Then, the UPLC/MS analyses were done by using a Waters ACQUITY TQD system with the TQ Detector (Waters, Milford, MA, USA). The in silico prediction of the most probable sites of metabolism was done by ADMET Predictor, ver. […]
7.4) at 37 °C in the presence of NADPH Regeneration System (Promega, Madison, WI, USA). […]

[12] = tested on: SH-SY5Y human neuroblastoma cells; design: method as in PMID 28861918; conditions: cited from earlier work
[13] = target: histamine H3 receptor (H3R); conditions: cited from earlier work
[14] = tested on: HepG2 cells; test: MTS cell viability assay on HepG2; format: cell-based, human; conditions: 72 h, tested at 1, 10, 50, 100 μM
Protocol: as §1

[15] = tested on: HEK-293 cells; test: MTS cell viability assay on HEK-293; format: cell-based, human; conditions: HEK-293, MTS, 72 h; tested at 1, 10, 50, 100 μM
Protocol: as §1

SMILES: C#CCN(C)Cc1cc2cc(OCCCC3CCN(Cc4ccccc4)CC3)ccc2n1C [ASS234]
- IC50 [1]: 810 nM
- concentration at which compound precipitated during incubation [2]: 100 µM
- concentration at which compound began to elicit toxicity [3]: ≥ 30 µM
- Ki [4]: 3 nM
- concentration at which compound began to elicit toxicity [5]: ≥ 30 µM
- concentration at which compound began to elicit toxicity [6]: ≥ 30 µM
- IC50 [7]: 177 nM
- IC50 [8]: 5 nM
- concentration at which compound began to elicit toxicity [9]: ≥ 30 µM
- IC50 [10]: 1820 nM
- parent compound detected after incubation with HLMs [11]: the compound was not detected

SMILES: C#CCNCc1cc2cc(OCc3ccccc3)ccc2[nH]1 [PF9601N, N-(2-Propynyl)-2-(5-Benzyloxy-Indolyl) Methylamine]
- IC50 [7]: 22 nM
- IC50 [8]: 1250 nM
- parent compound detected after incubation with HLMs [11]: 95%

SMILES: C#CCN(C)Cc1cc2cc(OCCCN3CCCCC3)ccc2n1C [contilisant]
- effective concentration used in neuroprotection experiments [12]: 0.3 to 3 µM
- toxicity compared with ASS234 ([3]; 30 μM): less toxic than ASS234
- toxicity compared with ASS234 ([3]; 300 μM): more toxic than ASS234
- concentration at which compound began to elicit toxicity [3]: ≥ 30 µM
- concentration range not affecting cell viability ([3]; Huh7, abstract, assay not specified (MTT / crystal violet)): up to 30 μM
- Ki [13]: 11 nM
- Ki [4]: 65 nM
- toxicity compared with ASS234 ([5]; 300 μM, MTT (Figure 5B)): more toxic than ASS234
- concentration at which compound began to elicit toxicity [5]: 100 µM
- toxicity compared with ASS234 ([6]; 30 μM): less toxic than ASS234
- toxicity compared with ASS234 ([6]; 300 μM): more toxic than ASS234
- concentration at which compound began to elicit toxicity [6]: ≥ 30 µM
- IC50 [7]: 78 nM
- concentration range not affecting cell viability [14]: up to 50 μM
- toxicity compared with ASS234 ([9]; 100 μM): less toxic than ASS234
- toxicity compared with ASS234 ([9]; 300 μM): more toxic than ASS234
- concentration at which compound began to elicit toxicity [9]: 100 µM
- IC50 [10]: 1690 nM
- concentration range not affecting cell viability [15]: up to 10 μM
- parent compound detected after incubation with HLMs [11]: 97%

SMILES: C#CCN(C)[C@H](C)Cc1ccccc1 [selegiline, reference compound]
- fraction of compound metabolized by HLMs [11]: about 54%
